In ChEMBL document CHEMBL1201862, “PubChem BioAssay data set” (2004):
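1) Cells in 96-well plates. 2) Compound, 48 h, 5 concentrations. 3) Linear interpolation between surrounding doses. 4) Unreached endpoint = highest concentration. Abbreviation: GI50, concentration required for 50% inhibition of growth.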 Active and inactive are the calls of the source. No stated cut-off is given here; in the data, active = GI50 up to about 1.1 µM and inactive = higher.

Key:
Experiment in all cases: growth of human tumour cells (NCI), 48 h
[1] = system: RXF 393
[2] = system: SF-295
[3] = system: NCI-H23
[4] = system: IGROV-1
[5] = system: OVCAR-8
[6] = system: ACHN
[7] = system: EKVX
[8] = system: SNB-19
[9] = system: U-251
[10] = system: UACC-257
[11] = system: OVCAR-4
[12] = system: HOP-62
[13] = system: 786-0
[14] = system: OVCAR-5
[15] = system: CAKI-1
[16] = system: SF-539

Measured: GI50

CCOC(=O)C1N(S(=O)(=O)c2ccc(C)cc2)CCC12C(c1ccc(OC)c(OC)c1)=Nc1ccccc12 (stereo unspecified)
inactive: [1] 49.3 µM | [2] > 100 µM | [3] > 100 µM | [4] > 100 µM | [5] > 100 µM | [6] > 100 µM | [7] > 100 µM | [8] > 100 µM | [9] > 100 µM | [10] > 100 µM | [11] > 100 µM | [12] > 100 µM | [13] > 100 µM | [14] > 100 µM | [15] > 100 µM | [16] > 100 µM

O=c1c2cc(Br)ccc2nc(-c2ccccc2)n1NCC1(O)OCC(O)C(O)C1O (stereo unspecified)
inactive: [1] > 100 µM | [2] > 100 µM | [3] > 100 µM | [5] > 100 µM | [6] > 100 µM | [7] > 100 µM | [8] > 100 µM | [9] > 100 µM | [10] > 100 µM | [11] 61.8 µM | [12] > 100 µM | [13] > 100 µM | [14] > 100 µM | [15] > 100 µM | [16] > 100 µM

O=C1OCC2C1C1c3ccccc3C(O)c3ccccc3C21 (stereo unspecified)
inactive: [1] > 100 µM | [2] > 100 µM | [3] > 100 µM | [4] > 100 µM | [5] > 100 µM | [6] > 100 µM | [7] > 100 µM | [9] > 100 µM | [10] > 100 µM | [11] > 100 µM | [12] > 100 µM | [13] > 100 µM | [14] > 100 µM | [15] > 100 µM | [16] > 100 µM

NNC(=S)N/N=C/C(=C/Nc1ccccc1)[N+](=O)[O-]
inactive: [1] > 100 µM | [2] > 100 µM | [3] > 100 µM | [4] > 100 µM | [5] > 100 µM | [6] > 100 µM | [7] > 100 µM | [8] > 100 µM | [10] > 100 µM | [11] > 100 µM | [12] > 100 µM | [13] > 100 µM | [14] > 100 µM | [15] > 100 µM | [16] > 100 µM

COC(=O)C(=O)C(C(=O)C(=O)Nc1cc(Cl)c(Cl)cc1Cl)c1nc2ccc([N+](=O)[O-])cc2nc1O (stereo unspecified)
inactive: [1] > 100 µM | [2] > 100 µM | [3] > 100 µM | [4] > 100 µM | [5] > 100 µM | [6] > 100 µM | [7] 48.5 µM | [8] > 100 µM | [9] > 100 µM | [10] > 100 µM | [11] > 100 µM | [13] > 100 µM | [14] > 100 µM | [15] 60.8 µM | [16] > 100 µM
